Consider six compounds from patent publication US9169255B2, “Caffeinated compounds and compositions for treatment of amyloid diseases and synucleinopathies” (ProteoTech Inc, priority 2011, dated 2015).

What all share (format): biochemical
In assay [1] the target is T1, Aβ 1-42 fibrils (Homo sapiens, UniProt P05067).
T1 construct: pre-fibrillized human Aβ 1-42 (rPeptide); purchased rPeptide
Briefly: Congo red binding assay, Aβ 1-42 fibrils. Conditions: for Congo Red Binding % Inhibition: 2-day incubation. How it is done:
In the Congo red binding assay the ability of a test compound to alter β-amyloid binding to Congo red is quantified. In this assay, Aβ 1-42 (as prepared for the Thio T assay) and test compounds were incubated for 2 days and then vacuum filtered through a 0.2 μm filter. The amount of Aβ 1-42 retained in the filter was then quantitated following staining of the filter with Congo red. After appropriate washing of the filter, any lowering of the Congo red color on the filter in the presence of the test compound (compared to the Congo red staining of the amyloid protein in the absence of the test compound) was indicative of the test compound's ability to diminish/alter the amount of aggregated and congophilic Aβ.

For a further assay, the target named is wild-type α-synuclein (Homo sapiens, UniProt P37840). Briefly: Thioflavin T fluorometry, inhibition of formation of α-synuclein β-sheet from fresh α-synuclein. How it is done: To test whether the compounds can inhibit formation of α-synuclein β-sheet, the same assay as described in Example 2, was utilized but the α-synuclein was fresh and not pre-fibrillized. Fresh wild-type α-synuclein was dissolved in a buffer containing 9.5 mM phosphate, 137 mM sodium chloride and 2.7 mM potassium chloride (phosphate-buffered saline; PBS), and the pH was adjusted to pH 7.4. This solution was then lyophilized and dissolved in 1.0 ml deionized water at 0.5 mg/ml (35 μM). As indicated above the test compounds (typically at test compound:α-synuclein molar ratios of 10:1, 1:1, 0.1:1, and 0.01:1) were then added to the α-synuclein. Following 24-38 hours of co-incubation, the incubation mixtures were diluted 1:10 and 50 μl of each diluted incubation mixture was transferred into a 96-well microtiter plate containing 150 μl of distilled water and 50 μl of a Thioflavin T solution (i.e. 500 μM Thioflavin T in 250 mM phosphate buffer, pH 6.8). The final concentration of α-synuclein was 0.7 μM and the concentration of Thioflavin T reagent was 100 μM in 50 mM phosphate buffer, pH 6.8. In some experiments, 200 μl of each diluted incubation mixture was combined in the 96-well microtiter plate with 50 μl of the 500 μM Thioflavin T solution to give 2.8 μM α-synuclein in the presence of 100 μM Thioflavin T reagent. The fluorescence was read at 485 nm (444 nm excitation wavelength) using an ELISA plate fluorometer after subtraction with buffer alone or compound alone, as blank. Positive control compound 1 performed nearly identically in inhibiting α-synuclein aggregation regardless of whether 0.7 μM or 2.8 μM α-synuclein was subsequently used in the Thioflavin T reaction.

Assay [2] addresses T1, Aβ 1-42 fibrils. Briefly: Thioflavin T fluorometry, disruption of pre-fibrillized Aβ 1-42. Conditions: for Thioflavin T fluorometry % Inhibition: 2-day incubation; for effect against Aβ fibrils/aggregates at substoichiometric concentrations: test compound:Aβ molar ratios of 0.1:1 and 0.05:1. The text has this: In this assay Thioflavin T binds specifically to fibrillar amyloid, and this binding produces a fluorescence enhancement at 485 nm that is directly proportional to the amount of amyloid fibrils formed. The higher the fluorescence, the greater the amount of amyloid fibrils formed (Naki et al., Lab. Invest. 65:104-110, 1991; Levine III, Protein Sci. 2:404-410, 1993; Amyloid: Int. J. Exp. Clin. […] The emission fluorescence was read at 485 nm (444 nm excitation wavelength) using an ELISA plate fluorometer after subtraction with buffer alone or compound alone, as blank.

The target in a further assay is T2, α-synuclein fibrils (Homo sapiens, UniProt P37840).
T2 construct: purchased rPeptide, Bogart, Calif
Description: Congo red binding assay, pre-formed α-synuclein fibrils. Conditions: 2-day incubation. On the procedure: In this set of studies, the efficacy of certain compounds provided herein to cause a disassembly/disruption/disaggregation of pre-formed fibrils of Parkinson's disease (i.e. consisting of α-synuclein fibrils) was analyzed. For the studies described below in Parts A and B, 69 μM of α-synuclein (rPeptide, Bogart, Calif.) was first incubated at 37° C. for 4 days in 20 mM sodium acetate buffer at pH 4 with circular shaking (1,300 rpm) to cause α-synuclein aggregation and fibril formation.
In the Congo red binding assay, the ability of a given test compound to alter α-synuclein aggregate binding to Congo red is quantified. In this assay Congo red binds specifically to fibrillar protein, and this binding is directly proportional to the amount of fibrils formed. Following initial α-synuclein fibrilization as described above, α-synuclein aggregates and test compounds were incubated for 2 days and then vacuum filtered through a 0.2 μm filter. The amount of α-synuclein retained in the filter was then quantitated following staining of the filter with Congo red. After appropriate washing of the filter, any lowering of the Congo red color on the filter in the presence of the test compound (compared to the Congo red staining of the protein in the absence of the test compound—i.e. α-synuclein alone) was indicative of the test compound's ability to diminish/alter the amount of aggregated and congophilic α-synuclein and thus cause disassembly/disruption/disaggregation of α-synuclein fibrils.
In one study, the ability of α-synuclein fibrils to bind Congo red following a 2-day incubation of α-synuclein in the absence or presence of increasing amounts of the compounds provided herein, including positive reference (control) compounds (at test compound:α-synuclein molar ratios of 10:1, 1:1, 0.1:1, 0.01:1) was determined. The results of this study indicate that compounds of this invention disrupt/disaggregate/disassemble pre-formed α-synuclein aggregates as indicated by their ability to inhibit Parkinson's disease type α-synuclein fibril binding to Congo red.

Where [3] appears, read: compound:peptide molar ratio 0.1:1.
[4] abbreviates: compound:peptide molar ratio 1:1.
[5] abbreviates: compound:peptide molar ratio 5:1.
[6] abbreviates: compound:peptide molar ratio 10:1.
Setting [7] is: compound:peptide molar ratio 0.01:1.
The mark [8] stands for this setting: compound:peptide molar ratio 0.05:1.

T1 sequence (P05067 672-713 limits assumed): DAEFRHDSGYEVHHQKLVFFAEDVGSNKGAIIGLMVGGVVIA

On to “1,3-dimethyl-7-(3′,4′-dibenzyloxy)benzyl-8-(3′,4′-dihydroxyphenyl)xanthine [PD-154]”, for which the “Congo Red Binding % Inhibition” value on Aβ 1-42 fibrils [1] (setting [3]), at Aβ 1-42 fibrils [1] (setting [4]), at Aβ 1-42 fibrils [1] (setting [5]) and at Aβ 1-42 fibrils [1] (setting [6]) was 0% throughout. Further, the “ThioT Assay % Inhibition” value at wild-type α-synuclein (setting [7]) came out at 8%; at wild-type α-synuclein (setting [3]) it was 44%; at wild-type α-synuclein (setting [4]), 89%; on wild-type α-synuclein (setting [6]) it was 89%. Also, the “Thioflavin T fluorometry % Inhibition” value at Aβ 1-42 fibrils [2] (setting [8]) was determined as 43%; at Aβ 1-42 fibrils [2] (setting [3]), 36%; on Aβ 1-42 fibrils [2] (setting [4]), 60%; on Aβ 1-42 fibrils [2] (setting [5]), 74%; at Aβ 1-42 fibrils [2] (setting [6]), 80%. For the same compound, the “effect against Aβ fibrils/aggregates at substoichiometric concentrations” value at Aβ 1-42 fibrils [2] is reported as “effective”. In addition, the “Congo Red Binding- % Inhibition” value on α-synuclein fibrils (setting [7]) is reported as 3%; at α-synuclein fibrils (setting [3]) it was 0%; on α-synuclein fibrils (setting [4]), 12%; on α-synuclein fibrils (setting [6]), 0%.
As for `Cn1c(=O)c2c(ncn2C)n(C)c1=O` [Caffeine, reference compound], the “inhibition of Aβ 1-42 fibril binding to Congo red” value at Aβ 1-42 fibrils [1] (all concentrations tested) was “no significant inhibition”. Also, the “Congo Red Binding % Inhibition” value at Aβ 1-42 fibrils [1] (setting [4]) came to 0%; on Aβ 1-42 fibrils [1] (setting [5]), 0%; at Aβ 1-42 fibrils [1] (setting [6]), 1%. The “ThioT Assay % Inhibition” value at wild-type α-synuclein (setting [7]), on wild-type α-synuclein (setting [3]), on wild-type α-synuclein (setting [4]) and at wild-type α-synuclein (setting [6]) was 0% in each case. Moreover, the “inhibition of Aβ 1-42 fibrils (Thioflavin T fluorometry)” value against Aβ 1-42 fibrils [2] (all concentrations tested) is reported as “no significant inhibition”. For the same compound, the “Thioflavin T fluorometry % Inhibition” value was 0% at Aβ 1-42 fibrils [2] (setting [4]), 0% at Aβ 1-42 fibrils [2] (setting [5]) and 8% on Aβ 1-42 fibrils [2] (setting [6]). Besides, the “Congo Red Binding- % Inhibition” value at α-synuclein fibrils (setting [6]) worked out at 0%.
Consider `Cn1cnc2c1c(=O)n(Cc1ccc(O)c(O)c1)c(=O)n2Cc1ccc(O)c(O)c1` [PD-150, 7-Methyl-1,3-bis(3′,4′-dihydroxy)benzylxanthine], for which the “Congo Red Binding % Inhibition” value on Aβ 1-42 fibrils [1] (setting [3]) is listed as 10%; at Aβ 1-42 fibrils [1] (setting [4]) it was 18%; on Aβ 1-42 fibrils [1] (setting [5]) it was 46%; at Aβ 1-42 fibrils [1] (setting [6]), 60%. Also, the “ThioT Assay % Inhibition” value at wild-type α-synuclein (setting [7]) is reported as 0%; at wild-type α-synuclein (setting [3]), 0%; on wild-type α-synuclein (setting [4]), 22%; on wild-type α-synuclein (setting [6]), 91%. Further, the “Thioflavin T fluorometry % Inhibition” value on Aβ 1-42 fibrils [2] (setting [8]) is reported as 41%; at Aβ 1-42 fibrils [2] (setting [3]), 35%; on Aβ 1-42 fibrils [2] (setting [4]), 67%; at Aβ 1-42 fibrils [2] (setting [5]) it was 87%; at Aβ 1-42 fibrils [2] (setting [6]) it was 94%. The “effect against Aβ fibrils/aggregates at substoichiometric concentrations” value on Aβ 1-42 fibrils [2] is listed as “effective”. The “Congo Red Binding- % Inhibition” value on α-synuclein fibrils (setting [6]) is 35%.
For the compound `Cn1c(=O)n(Cc2ccc(O)c(O)c2)c(=O)c2c1ncn2Cc1ccc(O)c(O)c1` [PD-151, 3-Methyl-1,7-bis(3′,4′-dihydroxybenzyl)xanthine], the “Congo Red Binding % Inhibition” value is on record as 13% on Aβ 1-42 fibrils [1] (setting [3]), 12% at Aβ 1-42 fibrils [1] (setting [4]), 47% on Aβ 1-42 fibrils [1] (setting [5]) and 63% on Aβ 1-42 fibrils [1] (setting [6]). Also, the “ThioT Assay % Inhibition” value at wild-type α-synuclein (setting [7]) stood at 0%; at wild-type α-synuclein (setting [3]), 0%; on wild-type α-synuclein (setting [4]), 0%; on wild-type α-synuclein (setting [6]) it was 78%. The “Thioflavin T fluorometry % Inhibition” value on Aβ 1-42 fibrils [2] (setting [8]) was found to be 18%; on Aβ 1-42 fibrils [2] (setting [3]), 20%; at Aβ 1-42 fibrils [2] (setting [4]), 56%; at Aβ 1-42 fibrils [2] (setting [5]) it was 87%; on Aβ 1-42 fibrils [2] (setting [6]) it was 94%. Also, the “Congo Red Binding- % Inhibition” value on α-synuclein fibrils (setting [7]) is given as 3%; on α-synuclein fibrils (setting [3]), 1%; on α-synuclein fibrils (setting [4]) it was 6%; at α-synuclein fibrils (setting [6]), 22%.
Take `Cn1c(=O)c2c(ncn2Cc2ccc(O)c(O)c2)n(Cc2ccc(O)c(O)c2)c1=O` [PD-152]: the “Congo Red Binding % Inhibition” value came to 4% on Aβ 1-42 fibrils [1] (setting [3]), 21% on Aβ 1-42 fibrils [1] (setting [4]), 48% at Aβ 1-42 fibrils [1] (setting [5]) and 59% on Aβ 1-42 fibrils [1] (setting [6]). Also, the “ThioT Assay % Inhibition” value is 0% on wild-type α-synuclein (setting [7]), 0% on wild-type α-synuclein (setting [3]), 0% at wild-type α-synuclein (setting [4]) and 72% at wild-type α-synuclein (setting [6]). The “Thioflavin T fluorometry % Inhibition” value stood at 12% at Aβ 1-42 fibrils [2] (setting [8]); 13% on Aβ 1-42 fibrils [2] (setting [3]); 54% on Aβ 1-42 fibrils [2] (setting [4]); 87% on Aβ 1-42 fibrils [2] (setting [5]); 91% at Aβ 1-42 fibrils [2] (setting [6]). The “Congo Red Binding- % Inhibition” value on α-synuclein fibrils (setting [7]) was determined as 0%; at α-synuclein fibrils (setting [3]) it was 6%; at α-synuclein fibrils (setting [4]) it was 19%; on α-synuclein fibrils (setting [6]), 22%.
`Cn1c(=O)c2c(nc(-c3ccc(O)c(O)c3)n2C)n(C)c1=O` [PD-153, 1,3,7-trimethyl-8-(3′,4′-dihydroxyoxyphenyl)xanthine]: the “Congo Red Binding % Inhibition” value worked out at 7% at Aβ 1-42 fibrils [1] (setting [3]), 20% at Aβ 1-42 fibrils [1] (setting [4]), 19% on Aβ 1-42 fibrils [1] (setting [5]) and 20% on Aβ 1-42 fibrils [1] (setting [6]). In addition, the “ThioT Assay % Inhibition” value on wild-type α-synuclein (setting [7]) came to 13%; at wild-type α-synuclein (setting [3]), 23%; on wild-type α-synuclein (setting [4]) it was 0%; at wild-type α-synuclein (setting [6]) it was 80%. Besides, the “Thioflavin T fluorometry % Inhibition” value is 5% on Aβ 1-42 fibrils [2] (setting [8]); 0% at Aβ 1-42 fibrils [2] (setting [3]); 6% on Aβ 1-42 fibrils [2] (setting [4]); 17% at Aβ 1-42 fibrils [2] (setting [5]); 63% on Aβ 1-42 fibrils [2] (setting [6]). Moreover, the “Congo Red Binding- % Inhibition” value at α-synuclein fibrils (setting [7]) is 1%; on α-synuclein fibrils (setting [3]), 2%; on α-synuclein fibrils (setting [4]), 6%; at α-synuclein fibrils (setting [6]), 18%.
